Measured values taken from the NIST ThermoML archive (doi:10.1021/je300202z).
Several values for one entry are separate records, joined by “and”; a condition that tells them apart may be missing. Equal entries are not always repeated. ± gives the expanded uncertainty stated by the source.

Conditions: Liquid, Ebulliometric method (Recirculating still)

SMILES	vapor or sublimation pressure (388.6 K) [kPa]	vapor or sublimation pressure (396.1 K) [kPa]	vapor or sublimation pressure (400.4 K) [kPa]	vapor or sublimation pressure (402.3 K) [kPa]	vapor or sublimation pressure (404.2 K) [kPa]	vapor or sublimation pressure (407.5 K) [kPa]	vapor or sublimation pressure (407.8 K)	vapor or sublimation pressure (408.2 K) [kPa]	vapor or sublimation pressure (416.7 K) [kPa]	vapor or sublimation pressure (421.5 K) [kPa]	vapor or sublimation pressure (423.7 K) [kPa]	vapor or sublimation pressure (425.8 K) [kPa]	vapor or sublimation pressure (428.8 K)	vapor or sublimation pressure (429.7 K) [kPa]
CCOCCO [2-ethoxyethan-1-ol]	53.33 ± 2.4	69.33 ± 2.5	80 ± 2.8	85.33 ± 3	90.66 ± 3.2	100.93 ± 3.3	101.33 ± 3.1 kPa and 100.93 ± 5.6 kPa							
CCOCCOC(C)=O [2-ethoxyethyl ethanoate]								53.33 ± 2.1	69.33 ± 2.2	80 ± 2.5	85.33 ± 2.7	90.66 ± 3.3	101.33 ± 3.7 kPa and 100.93 ± 5.5 kPa	100.93 ± 2.8
